Reference: US20110082182A1, “THERAPEUTIC ANTIVIRAL PEPTIDES” (INTERMUNE, INC., priority 2009, published 2011)

Legend:
[1] = target: T1, NS3/NS4A-2 (full-length HCV NS3 protease) (Hepatitis C virus genotype 1a, UniProt P27958); experiment: NS3 Inhibition Assay (NS3-NS4 protease assay, RETS1 substrate, fluorescence kinetic read); type: biochemical; details: NS3/NS4A-2 protease
T1 construct: Recombinant E. coli or Baculovirus full-length NS3 was diluted to 3.33 μM with assay buffer; made in house; host or cells: E. coli or baculovirus (BV) expression
Protocol: NS3 Complex Formation with NS4A-2.
Recombinant E. coli or Baculovirus full-length NS3 was diluted to 3.33 μM with assay buffer and the material was transferred to an eppendorf tube and placed in a water bath in a 4° C. refrigerator. The appropriate amount of NS4A-2 diluted to 8.3 mM in assay buffer was added to an equal the volume of NS3 above (conversion factor—3.8 mg/272 μL assay buffer). The material was transferred to an eppendorf tube and placed in water bath in a 4° C. refrigerator.
After equilibration to 4° C., equal volumes of NS3 and NS4A-2 solutions were combined in an eppendorf tube, mixed gently with a manual pipettor, and incubated for 15 minutes in the 4° C. water bath. Final concentrations in the mixture are 1.67 μM NS3, 4.15 mM NS4A-2 (2485-fold molar excess NS4A-2).
After 15 minutes at 4° C., the NS3/NS4A-2 eppendorf tube was removed and placed in a room temperature water bath for 10 minutes. NS3/NS4A-2 was aliquoted at appropriate volumes and stored at −80° C. (E. coli NS3 run at 2 nM in assay, aliquot at 25 μL. BV NS3 run at 3 nM in assay, aliquot at 30 μL).
Step a. Sample compounds were dissolved to 10 mM in DMSO then diluted to 2.5 mM (1:4) in DMSO. Typically, compounds were added to an assay plate at 2.5 mM concentration, yielding upon dilution a starting concentration of 50 μM in the assay inhibition curve. Compounds were serial diluted in assay buffer to provide test solutions at lower concentrations.
Step 1. The E. coli. NS3/NS4A-2 was diluted to 4 nM NS3 (1:417.5 of 1.67 μM stock−18 μL 1.67 μM stock+7497 μL assay buffer). […]
The plate was read in kinetic mode on the Molecular Devices SpectraMax Gemini XS plate reader. Reader settings: Read time: 30 minutes, Interval: 36 seconds, Reads: 51, Excitation λ: 335 nm, Emission λ: 495 nm, cutoff: 475 nm, Automix: off, Calibrate: once, PMT: high, Reads/well: 6, Vmax pts: 21 or 28/51 depending on length of linearity of reaction
IC50s are determined using a four parameter curve fit equation, and converted to Ki's using the following Km's: […]

[2] = tested on: HCV sub-genomic replicon (I377/NS3-3') in HuH-7 hepatoma cells (GS4.3); experiment: Quantitation by ELISA of NPTII in the HCV sub-genomic replicon, GS4.3; type: cell-based; details: Hepatitis C virus, GS4.3 replicon cells, 72 h
Text: Quantitation by ELISA of the Selectable Marker Protein, Neomycin Phosphotransferase II (NPTII) in the HCV Sub-Genomic Replicon, GS4.3
The HCV sub-genomic replicon (I377/NS3-3′, accession No. AJ242652), stably maintained in HuH-7 hepatoma cells, was created by Lohmann et al. Science 285: 110-113 (1999). The replicon-containing cell culture, designated GS4.3, was obtained from Dr. Christoph Seeger of the Institute for Cancer Research, Fox Chase Cancer Center, Philadelphia, Pa.
GS4.3 cells were maintained at 37° C., 5%CO2, in DMEM (Gibco 11965-092) supplemented with L-glutamine 200 mM (100×) (Gibco25030-081), non-essential amino acids (NEAA) (Biowhittaker 13-114E), heat-inactivated (HI) Fetal Bovine Serum (FBS) (Hyclone SH3007.03) and 750 μg/mL geneticin (G418) (Gibco 10131-035). Cells were sub-divided 1:3 or 4 every 2-3 days.
24 h prior to the assay, GS4.3 cells were collected, counted, and plated in 96-well plates (Costar 3585) at 7500 cells/well in 100 μL standard maintenance medium (above) and incubated in the conditions above. To initiate the assay, culture medium was removed, cells were washed once with PBS (Gibco 10010-023) and 90 μl Assay Medium (DMEM, L-glutamine, NEAA, 10% HI FBS, no G418) was added. Inhibitors were made as a 10× stock in Assay Medium, (3-fold dilutions from 10 μM to 56 pM final concentration, final DMSO concentration 1%), 10 μL were added to duplicate wells, plates were rocked to mix, and incubated as above for 72 h.
An NPTII Elisa kit was obtained from AGDIA, Inc. (Compound direct ELISA test system for Neomycin Phosphotransferase II, PSP 73000/4800). Manufacturer's instructions were followed, with some modifications. 10× PEB-1 lysis buffer was made up to include 500 μM PMSF (Sigma P7626, 50 mM stock in isopropanol). […] Plates were read at 450 nm on a Molecular Devices Versamax plate reader.
Inhibitor effect was expressed as a percentage of DMSO-treated control signal, and inhibition curves were calculated using a 4-parameter equation: y=A+4B−A)/(1+((C/x)̂C))), where C is half-maximal activity or EC50.

T1 sequence (P27958 1027-1657): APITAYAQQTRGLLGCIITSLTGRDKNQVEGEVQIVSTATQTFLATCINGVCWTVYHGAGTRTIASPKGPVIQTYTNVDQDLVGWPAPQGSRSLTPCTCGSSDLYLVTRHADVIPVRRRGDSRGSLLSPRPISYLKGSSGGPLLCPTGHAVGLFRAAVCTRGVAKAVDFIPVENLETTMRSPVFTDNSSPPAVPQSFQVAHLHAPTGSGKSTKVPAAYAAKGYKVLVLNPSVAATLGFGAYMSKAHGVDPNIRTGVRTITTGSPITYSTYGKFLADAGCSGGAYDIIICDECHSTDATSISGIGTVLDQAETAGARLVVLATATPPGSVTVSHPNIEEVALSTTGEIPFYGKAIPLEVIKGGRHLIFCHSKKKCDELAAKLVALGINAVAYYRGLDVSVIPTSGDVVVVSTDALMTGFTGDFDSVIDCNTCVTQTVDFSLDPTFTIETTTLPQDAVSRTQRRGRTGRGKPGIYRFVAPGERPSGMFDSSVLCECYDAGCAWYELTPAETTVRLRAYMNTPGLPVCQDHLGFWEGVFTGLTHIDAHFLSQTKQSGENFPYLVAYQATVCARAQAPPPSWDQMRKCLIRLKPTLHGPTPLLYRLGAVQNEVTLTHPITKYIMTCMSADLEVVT

| Structure (SMILES) | IC50 [1] [nM] | EC50 [2] [nM] |
| --- | --- | --- |
| CC[C@@H]1C[C@@]12NC(=O)[C@@H]1C[C@H](CN1C(=O)[C@@H](NC(=O)OC(C)(C)C)C(C)(C)C)Oc1nc3ccccc3n1C/C=C\CCCC1(CC1)S(=O)(=O)NC2=O [Compound 1] | < 100 | > 1000 |
| CC[C@@H]1C[C@@]12NC(=O)[C@@H]1C[C@H](CN1C(=O)[C@@H](NC(=O)OC(C)(C)C)C(C)(C)C)Oc1nc3ccccc3n1CCC/C=C\CCC1(CC1)S(=O)(=O)NC2=O [Compound 5] | < 100 | > 1000 |
| CC[C@@H]1C[C@@]12NC(=O)[C@@H]1C[C@H](CN1C(=O)[C@@H](NC(=O)OC(C)(C)C)C(C)(C)C)Oc1nc3ccccc3n1CCCCCCCC1(CC1)S(=O)(=O)NC2=O [Compound 6] | 100 to 1000 | > 1000 |
